This note sets out measurements from ChEMBL document CHEMBL5252593, “Therapeutic significance of molecular hybrids for breast cancer research and treatment” (RSC Med Chem, 2023).

The test system of series [1] is MCF7. Nature of the series: Antiproliferative activity against human MCF7 cells assessed as cell growth inhibition measured after 24 hrs by MTT assay. In kind it is functional, cell-based. The conditions noted are these: MCF7, 24 h. For orientation: Tetrazolium assays rely on reduction of a dye to a coloured formazan, in cell work by metabolically active cells.
For series [2], the system named is MCF7. Briefly: Antiproliferative activity against human MCF7 cells assessed as reduction in cell viability measured after 24 hrs by MTT assay. The conditions noted are these: MCF7, 24 h. Format: functional, cell-based.
Series [3] deals with HEK293. Briefly: Antiproliferative activity against human HEK293 cells assessed as inhibition of cell proliferation measured after 24 hrs by MTT assay. In kind it is functional, cell-based. As to conditions: HEK293, 24 h.
For series [4], the system named is MDA-MB-231. Briefly: Antiproliferative activity against human MDA-MB-231 cells assessed as inhibition of cell growth by MTT assay. In kind it is functional, cell-based.
Series [5] relates to MDA-MB-231. Nature of the series: Antiproliferative activity against human MDA-MB-231 cells assessed as inhibition of cell growth incubated for 72 hrs by Celltiter Glo assay. Format: functional, cell-based. The conditions noted are these: MDA-MB-231, 72 h. (In ATP-based viability assays light output follows the ATP content of the culture.)
For series [6], the system named is MDA-MB-231. Nature of the series: Antiproliferative activity against human MDA-MB-231 cells assessed as reduction in cell viability measured after 24 hrs by MTT assay. The conditions noted are these: MDA-MB-231, 24 h. Format: functional, cell-based.
The subject of series [7] is MCF7. Nature of the series: Antiproliferative activity against Doxorubicin-resistant human MCF7 cells assessed as reduction in cell proliferation incubated for 48 hrs by MTT assay. The conditions noted are these: MCF7, 48 h. Format: functional, cell-based.
Another series concerns MCF-10A. Briefly: Antiproliferative activity against human MCF-10A cells assessed as reduction in cell proliferation incubated for 48 hrs by MTT assay. Format: functional, cell-based.
The subject of series [8] is MDA-MB-231. Nature of the series: Antiproliferative activity against human MDA-MB-231 cells assessed as reduction in cell proliferation incubated for 48 hrs by MTT assay. Format: functional, cell-based. As to conditions: MDA-MB-231, 48 h.
The test system of series [9] is MCF7. Nature of the series: Antiproliferative activity against human MCF7 cells assessed as reduction in cell proliferation incubated for 48 hrs by MTT assay. Format: functional, cell-based. The conditions noted are these: MCF7, 48 h.
Series [10] can be described thus: Selectivity index, ratio of IC50 for antiproliferative activity against human MCF-10A cells to IC50 for antiproliferative activity against human MCF7 cells by MTT assay. Format: toxicity, cell-based. The conditions noted are these: MCF-10A cells versus MCF7 cells, read-out: Selectivity Index.
In series [11] the test system is MDA-MB-231. Nature of the series: Antiproliferative activity against human MDA-MB-231 cells assessed as inhibition of cell proliferation incubated for 24 hrs by MTT assay. Format: functional, cell-based. The conditions noted are these: MDA-MB-231, 24 h.
For series [12], the system named is MCF7. Briefly: Antiproliferative activity against human MCF7 cells assessed as inhibition of cell proliferation incubated for 24 hrs by MTT assay. In kind it is functional, cell-based. As to conditions: MCF7, 24 h.
Series [13] has as its target T1, Prostaglandin G/H synthase 2 (Homo sapiens) (UniProt P35354).
T1 sequence (whole entry): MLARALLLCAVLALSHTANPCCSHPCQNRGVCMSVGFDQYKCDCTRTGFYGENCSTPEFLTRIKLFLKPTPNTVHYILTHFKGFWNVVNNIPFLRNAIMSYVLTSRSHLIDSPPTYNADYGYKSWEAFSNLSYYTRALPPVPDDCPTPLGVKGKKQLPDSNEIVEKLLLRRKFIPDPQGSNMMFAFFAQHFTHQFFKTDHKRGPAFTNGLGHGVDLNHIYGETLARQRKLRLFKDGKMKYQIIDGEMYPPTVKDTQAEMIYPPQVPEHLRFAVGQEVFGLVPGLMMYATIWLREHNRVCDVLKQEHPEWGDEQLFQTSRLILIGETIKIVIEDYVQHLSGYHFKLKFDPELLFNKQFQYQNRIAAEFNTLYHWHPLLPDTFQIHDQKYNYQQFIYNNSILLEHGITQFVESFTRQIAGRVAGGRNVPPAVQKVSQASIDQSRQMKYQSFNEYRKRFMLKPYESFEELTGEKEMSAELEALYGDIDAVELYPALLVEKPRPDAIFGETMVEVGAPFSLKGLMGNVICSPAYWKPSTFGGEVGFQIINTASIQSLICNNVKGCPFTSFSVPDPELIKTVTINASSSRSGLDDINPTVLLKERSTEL
Briefly: Inhibition of COX-2 (unknown origin) at 50 uM by fluorescence based method relative to control.

Series [14] has as its system MDA-MB-231. Briefly: Antiproliferative activity against human MDA-MB-231 cells assessed as reduction in cell viability measured after 48 hrs by MTT assay. The conditions noted are these: MDA-MB-231, 48 h. In kind it is functional, cell-based.
In a further series the test system is MDA-MB-361. Briefly: Antiproliferative activity against human MDA-MB-361 cells assessed as reduction in cell viability measured after 48 hrs by MTT assay. Format: functional, cell-based. As to conditions: MDA-MB-361, 48 h.
A further series concerns T47D. Nature of the series: Antiproliferative activity against human T47D cells assessed as reduction in cell viability measured after 48 hrs by MTT assay. Format: functional, cell-based.
For series [15], the system named is MCF7. Nature of the series: Antiproliferative activity against human MCF7 cells assessed as reduction in cell viability measured after 48 hrs by MTT assay. In kind it is functional, cell-based. As to conditions: MCF7, 48 h.
For the next series, the system named is C-33-A. Nature of the series: Antiproliferative activity against human C-33-A cells assessed as reduction in cell viability measured after 48 hrs by MTT assay. Format: functional, cell-based.
For series [16], the system named is MCF7. Briefly: Antiproliferative activity against human MCF7 cells assessed as reduction in cell viability. In kind it is functional, cell-based.
Series [17] deals with HEK293. Briefly: Antiproliferative activity against human HEK293 cells assessed as inhibition of cell growth measured after 24 hrs by MTT assay. The conditions noted are these: HEK293, 24 h. Format: functional, cell-based.

As usually defined, the IC50 is the point on the concentration scale where inhibition reaches its midpoint. What is called inhibition is the relative decrease from the control value, in per cent. The low end stands for a response near the control, the high end for a response far below the control. What is called EC50 is the concentration at which the effect is half-maximal.

SMILES strings stand for the structures. Bounds are passed on as bounds.

Turning to `COc1cccc(OC)c1C1CC(c2ccc(OCc3cn(CCCN4C(=O)c5cccc6cccc(c56)C4=O)nn3)cc2)=NN1C(C)=O` (stereo not drawn), the values for the IC50 in the series with MCF7 [1], with MCF7 [2] and with HEK293 [3] were 62.2 µM, 62.2 µM and more than 100 µM, respectively.

With `O=C1C(=O)N(CCn2cc(COCCOc3ccc(/C(=C(/CCCl)c4ccccc4)c4ccccc4)cc3)nn2)c2c(Br)cc(Br)cc21`, in the series with MDA-MB-231 [4], the IC50 came out at 48.5 µM.

Take `CCOC(=O)[C@H]1Cc2c([nH]c3ccccc23)CN1Cc1cn(CCCCCOc2ccc(C(=O)/C=C/c3cc(OC)c(OC)c(OC)c3)cc2)nn1`: the IC50 with MDA-MB-231 [5] worked out at 22.3 µM; in the series on MDA-MB-231 [6], 22 µM.

Turning to `CCO/N=C1/C(=O)N(CCCOC2O[C@@H]3O[C@@]4(C)CC[C@H]5[C@H](C)CC[C@@H]([C@H]2C)[C@@]35OO4)c2ccc(F)cc21` (stereo partly drawn), the IC50 is 21.7 µM in the series with MCF7 [7], more than 100 µM with MCF-10A, 23.9 µM in the series on MDA-MB-231 [8] and 20.7 µM in the series on MCF7 [9]. The selectivity ratio in series [10] was more than 1.3.

As for `CCOC(=O)[C@H]1Cc2c([nH]c3ccccc23)CN1Cc1cn(CCCN2C(=O)C(=O)c3ccccc32)nn1`, the IC50 in the series with MDA-MB-231 [11] is more than 100 µM; with MCF7 [12], 37.4 µM.

Consider `OC[C@H]1O[C@@H](Cc2cc(-c3c[nH]c4ccccc34)on2)[C@H](O)[C@@H](O)[C@@H]1O`, for which the IC50 in the series on MDA-MB-231 [5] turned out to be 35.5 µM. The compound further gave an inhibition in series [13] of 95%.

With `C[C@H]1[C@@H](CC(=O)OC[C@H]2C[C@H]3[C@@H]4CCc5cc(OCc6ccccc6)ccc5[C@H]4CC[C@]3(C)[C@H]2O)OC2O[C@]3(C)CC[C@H]4[C@H](C)CC[C@@H]1[C@@]24OO3` (stereo partly drawn), the EC50 was determined as 0.86 µM with MDA-MB-231 [14]; 0.18 µM in the series on MDA-MB-361; 0.93 µM in the series with T47D; 0.45 µM with MCF7 [15]; 0.15 µM in the series with C-33-A.

Consider `CCOC(=O)[C@H]1Cc2c([nH]c3ccccc23)CN1Cc1cn(CCCOc2ccc(C(=O)/C=C/c3ccc(F)cc3)cc2)nn1`, for which the IC50 in the series with MCF7 [16] was found to be 10.3 µM.

In the case of `Cc1ncc([N+](=O)[O-])n1Cc1cn(CCCCN2C(=O)C(=O)c3cc(Cl)ccc32)nn1`, the IC50 in the series with HEK293 [17] turned out to be 12.1 µM.

For `COc1ccc2c3c([nH]c2c1)[C@]12CC(C)(C)[C@@]4(C(=O)N1CC3)c1[nH]c3cc(OC)ccc3c1CCN24`, the IC50 in the series on MCF7 [12] was 38.5 µM.
